Reference: patent publication US20230123889A1, “METHOD FOR DEGRADING BENZO(A)PYRENE WITH A HALOPHILIC BACTERIUM STRAIN OF STAPHYLOCOCCUS HAEMOLITICUS” (KING FAHD UNIVERSITY OF PETROLEUM AND MINERALS, priority 2021, published 2023)
Marks after values point to notes of the source that are not given here.

How the values were obtained:
Format in all cases: cell-based
[1] = test system: Staphylococcus haemoliticus 10SBZ1A strain; experiment: Bacterial growth assessment (doubling time, CFU/ml) in the presence of BZP and various hydrocarbon substrates as carbon source
[2] = test system: Staphylococcus haemoliticus 10SBZ1A strain; experiment: Quantification of BZP and substrate utilization in bacterial culture (GC-MS); conditions: control without bacteria
Method: Quantification of BZP and substrate utilization. The remaining BZP was quantified in a bacterial culture of 100 ml containing 20 μmol BZP for 18 days, according to the protocol reported by and incorporated by reference to Budiyanto, F, et al. (2017). Characterization of halophilic bacteria capable of efficiently biodegrading the high molecular weight polycyclic aromatic hydrocarbon pyrene. Environmental Engineering Science. June 2018.616-626.
A sample corresponding to one culture flask of 100 ml, was collected every 5 days and subjected to extraction as follows. The samples were sonicated for 30 min and then extracted twice with ethyl acetate (50 ml). The combined organic layers were dehydrated with calcium chloride and then dried under vacuum. Samples were re-dissolved in 500 μl of chloroform prior to analysis by gas chromatography-mass spectrometry (GC-MS). […] Values of quantified BZP were fitted in the exponential decay equation, Qt=Qoe^−kt to obtain the biodegradation rate constant (k); see Lu, J, C Guo, et al. (2014). […]
The mixture was then diluted with 1.0 ml of chloroform prior to its analysis by GC-MS. […] Values of quantified BZP were fitted in the exponential decay equation, Qt=Qoe^−kt to obtain the biodegradation rate constant (k); see Lu et al., International Biodeterioration & Biodegradation 87: 75-80.

[3] = test system: Staphylococcus haemoliticus 10SBZ1A strain; experiment: Bacterial growth assessment (doubling time, CFU/ml) in the presence of BZP and various hydrocarbon substrates as carbon source; conditions: for Doubling time (dt, h): strain growing on BaP; for strain dt in the presence of substrate (FIG. 3): substrate as carbon source
Method: Bacterial growth assessment in the presence of BZP and various hydrocarbon molecules: effect of pH and salinity. To initiate these experiments, bacteria were pre-cultured in an LB rich medium, and around 5×10^5 colony forming units (CFU) of these bacteria were added to 50 ml BH medium containing 100 μmol BZP, unless otherwise stated. Non-polar substrates pyrene, phenanthrene, naphthalene and anthracene were dissolved in dimethyl sulfoxide (DMSO) [0.1 g/ml], while the water-soluble substrates SALC and CATC were dissolved directly in BH medium. The aliphatic compounds were directly added to the medium. […] Growth was monitored as a measure of CFU/ml.
Bacterial doubling time (dt) was calculated by fitting growth curves data points into […] equation, where Q is the bacterial CFU ml^−1 at time t, Qo is the initial bacterial count in the culture, and k is the growth rate. The growth rate (k) was then used to compute dt values according to the equation: dt=ln(2)/k (in days). Values were calculated with Microsoft Excel software (Version). All experiments were carried out in duplicate.

## c1ccc2c(c1)cc1ccc3cccc4ccc2c1c34 [BZP, benzo(a)pyrene]
[1]; Temperature 37° C., strain growing on BaP
  Doubling time (dt, h): 21+1 h
[1]; temperatures 35, 37, 40° C.
  range of dt: 21 to 29 h
[2]
  abiotic degradation: Around 20%
[3]; 0% NaCl
  growth: No growth
[3]; 4-200 μmol of BZP as sole source of carbon
  doubling time: 2 to 10 h
[3]; 20% NaCl
  growth: No growth
[3]; BZP 20 μmol.1^−1
  maximum count: > 10^9 CFU ml^−1
[3]; BZP 400 μmol.1^−1
  time at which the maximum growth was achieved: 15 days
[3]; BZP 1 to 100 μmol.1^1
  dt values: 15 to 20 h
[3]; BZP 5 to 20 μmol.1^−1
  maximum count: 10^7-10^8 CFU/ml
  time to reach maximum growth: 6 to 8 days
[3]; BZP 200 and 400 μmol.1^−1
  dt values relative to those at 1 to 100 μmol.1^1: almost doubled
[3]; Salinity 5% NaCl
  Doubling time (dt, h): 44 ± 7 h
[3]; Salinity 5% NaCl, listed as benzo(a)pyrene
  Doubling time (dt, h): 46.8 ± 7.4 h
[3]; Salinity 10% NaCl
  Doubling time (dt, h): 21 ± 1 h
[3]; Salinity 10% NaCl, listed as benzo(a)pyrene
  Doubling time (dt, h): 21.5 ± 1.0 h
[3]; Salinity 15% NaCl
  Doubling time (dt, h): 156 ± 73 h
[3]; Salinity 15% NaCl, listed as benzo(a)pyrene
  Doubling time (dt, h): 156 ± 74 h
[3]; Temperature 35° C.
  Doubling time (dt, h): 28.5 ± 2.4^b h
[3]; Temperature 37° C.
  Doubling time (dt, h): 21.5 ± 1.0^b h
[3]; Temperature 40° C.
  Doubling time (dt, h): 24.5 ± 1.0 h
[3]; pH 5, 6, 8 and 9
  growth at other pH values: slow
[3]; pH 7
  dt values: 21.49±0.98
  Doubling time (dt, h): 21.5 ± 1.0 h
[3]
  strain dt in the presence of substrate (FIG. 3): around 42 h

## c1ccc2cc3ccccc3cc2c1 [anthracene]
[3]
  strain dt in the presence of substrate (FIG. 3): 30 to 33 h

## OCC(O)CO [glycerol]
[3]
  strain dt in the presence of substrate (FIG. 3): around 11 hours

## c1cc2ccc3cccc4ccc(c1)c2c34 [pyrene]
[3]
  strain dt in the presence of substrate (FIG. 3): similar
